Article PMC8795197, “Safety and activity of WX-0593 (Iruplinalkib) in patients with ALK- or ROS1-rearranged advanced non-small cell lung cancer: a phase 1 dose-escalation and dose-expansion trial” (Signal Transduction and Targeted Therapy, 2022)
Entries after “also recorded” stand apart in the source; their conditions may differ. Like-named read-outs stand apart in the source and are kept apart here.

Legend:
ALK mutant L1196M = ALK mutant L1196M (Homo sapiens, UniProt Q9UM73, L1196M); assay: In vitro enzyme inhibition study; type: biochemical; details: difference in inhibitory activity within 3 times
Sequence of ALK mutant L1196M (Q9UM73 19-1620 L1196M): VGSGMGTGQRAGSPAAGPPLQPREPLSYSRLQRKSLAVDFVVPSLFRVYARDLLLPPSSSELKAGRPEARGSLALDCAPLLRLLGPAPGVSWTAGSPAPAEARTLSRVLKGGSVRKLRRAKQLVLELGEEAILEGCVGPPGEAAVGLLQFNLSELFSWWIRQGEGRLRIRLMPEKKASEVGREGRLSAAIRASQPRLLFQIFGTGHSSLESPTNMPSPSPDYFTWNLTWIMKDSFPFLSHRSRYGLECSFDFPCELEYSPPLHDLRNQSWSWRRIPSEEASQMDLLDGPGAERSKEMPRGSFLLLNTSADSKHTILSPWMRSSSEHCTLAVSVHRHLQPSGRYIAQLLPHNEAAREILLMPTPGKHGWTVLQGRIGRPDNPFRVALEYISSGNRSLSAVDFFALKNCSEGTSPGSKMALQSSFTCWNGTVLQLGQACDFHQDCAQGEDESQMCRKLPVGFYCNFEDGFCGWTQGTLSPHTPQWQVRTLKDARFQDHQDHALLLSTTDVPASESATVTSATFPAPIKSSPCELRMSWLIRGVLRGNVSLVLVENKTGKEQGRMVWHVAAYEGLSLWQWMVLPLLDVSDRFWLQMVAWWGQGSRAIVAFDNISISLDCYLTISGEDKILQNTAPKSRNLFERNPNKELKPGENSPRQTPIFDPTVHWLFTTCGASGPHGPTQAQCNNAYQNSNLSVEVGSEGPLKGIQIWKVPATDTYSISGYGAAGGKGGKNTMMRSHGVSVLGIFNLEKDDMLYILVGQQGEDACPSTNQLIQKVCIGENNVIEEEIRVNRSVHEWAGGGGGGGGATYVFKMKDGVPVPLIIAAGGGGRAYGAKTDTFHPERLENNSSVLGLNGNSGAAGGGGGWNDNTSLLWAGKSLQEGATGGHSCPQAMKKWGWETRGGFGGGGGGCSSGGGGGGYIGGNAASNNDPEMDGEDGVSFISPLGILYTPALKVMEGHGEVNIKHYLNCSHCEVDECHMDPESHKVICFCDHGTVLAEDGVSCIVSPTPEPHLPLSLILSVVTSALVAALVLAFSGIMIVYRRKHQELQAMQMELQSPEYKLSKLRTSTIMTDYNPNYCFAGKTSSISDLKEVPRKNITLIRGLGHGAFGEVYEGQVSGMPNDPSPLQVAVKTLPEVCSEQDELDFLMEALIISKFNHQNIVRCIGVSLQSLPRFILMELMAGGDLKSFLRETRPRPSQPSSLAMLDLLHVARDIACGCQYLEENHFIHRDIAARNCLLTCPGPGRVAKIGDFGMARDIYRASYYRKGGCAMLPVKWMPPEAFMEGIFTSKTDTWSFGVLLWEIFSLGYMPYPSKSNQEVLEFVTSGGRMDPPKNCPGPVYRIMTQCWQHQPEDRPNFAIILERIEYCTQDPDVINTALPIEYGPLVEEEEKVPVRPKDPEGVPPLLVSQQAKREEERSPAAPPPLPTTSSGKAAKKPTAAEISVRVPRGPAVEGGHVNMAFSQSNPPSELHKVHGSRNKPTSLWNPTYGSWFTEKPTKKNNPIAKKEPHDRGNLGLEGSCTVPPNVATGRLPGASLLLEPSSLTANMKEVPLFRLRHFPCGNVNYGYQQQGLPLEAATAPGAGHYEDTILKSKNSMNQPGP
From the text: (§1) The inhibitory activities were low for other serine, threonine, and tyrosine […], except for the EGFR wild type, within the tested concentration range.

ALK mutant C1156Y = ALK mutant C1156Y (Homo sapiens, UniProt Q9UM73, C1156Y); assay: In vitro enzyme inhibition study; type: biochemical; details: difference in inhibitory activity within 3 times
Sequence of ALK mutant C1156Y (Q9UM73 19-1620 C1156Y): as the sequence (Q9UM73 19-1620 L1196M) above, with C1138Y, M1178L counted along it
From the text: as §1

EGFR L858R/T790M = EGFR L858R/T790M (Homo sapiens, UniProt P00533, L858R/T790M); assay: In vitro enzyme inhibition study; type: biochemical; details: difference in inhibitory activity within 3 times
Sequence of EGFR L858R/T790M (P00533 25-1210 T790M/L858R): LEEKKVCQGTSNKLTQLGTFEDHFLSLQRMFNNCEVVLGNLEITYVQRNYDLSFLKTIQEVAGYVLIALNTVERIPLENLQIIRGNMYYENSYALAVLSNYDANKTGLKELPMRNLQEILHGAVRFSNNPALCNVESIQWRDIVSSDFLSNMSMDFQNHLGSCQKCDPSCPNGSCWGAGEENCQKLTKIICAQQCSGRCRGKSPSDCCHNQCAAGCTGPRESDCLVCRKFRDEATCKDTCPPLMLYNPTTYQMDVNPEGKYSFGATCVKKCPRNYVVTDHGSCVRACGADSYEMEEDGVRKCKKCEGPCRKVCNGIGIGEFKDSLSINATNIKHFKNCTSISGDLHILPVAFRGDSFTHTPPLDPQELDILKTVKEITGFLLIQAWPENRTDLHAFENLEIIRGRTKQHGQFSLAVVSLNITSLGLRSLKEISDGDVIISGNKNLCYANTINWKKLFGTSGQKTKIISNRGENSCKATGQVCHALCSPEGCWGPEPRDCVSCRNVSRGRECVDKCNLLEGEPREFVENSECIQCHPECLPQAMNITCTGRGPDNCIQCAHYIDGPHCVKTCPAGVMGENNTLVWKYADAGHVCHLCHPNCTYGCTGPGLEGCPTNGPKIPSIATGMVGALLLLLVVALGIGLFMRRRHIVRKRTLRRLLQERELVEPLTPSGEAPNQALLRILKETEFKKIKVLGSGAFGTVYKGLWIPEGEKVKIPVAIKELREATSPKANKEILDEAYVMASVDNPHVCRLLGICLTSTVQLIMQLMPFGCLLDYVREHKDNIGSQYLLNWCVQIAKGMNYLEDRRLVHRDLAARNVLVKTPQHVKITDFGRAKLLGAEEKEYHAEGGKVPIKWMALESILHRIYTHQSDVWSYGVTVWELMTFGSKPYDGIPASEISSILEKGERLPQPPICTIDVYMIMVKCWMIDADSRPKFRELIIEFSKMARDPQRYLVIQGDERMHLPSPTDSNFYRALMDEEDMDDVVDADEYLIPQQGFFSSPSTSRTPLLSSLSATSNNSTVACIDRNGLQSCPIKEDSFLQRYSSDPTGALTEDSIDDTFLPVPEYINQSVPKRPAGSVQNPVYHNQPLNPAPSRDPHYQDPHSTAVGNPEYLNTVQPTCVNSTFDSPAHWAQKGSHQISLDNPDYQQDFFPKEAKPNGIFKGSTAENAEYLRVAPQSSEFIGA
From the text: as §1

Ba/F3 CD74-ROS1-S1986Y = assay: Growth of transfected Ba/F3 cells (CellTiter-Glo, 3 days); type: cell-based; details: Mus musculus, BaF3
Method: (§2) Harvest cells during the logarithmic growth period and count cells using blood counting chamber. Adjust cell concentration with culture medium. Add 90µl cell suspensions to two 96-well plates to the final cell density as described before. Incubate the plate overnight in humidified incubator at 37℃ with 5% CO2. Dispense 10µl drug solution (10×) to each well (triplicate for each concentration), and the DMSO final concentration in culture medium is 0.1% [v/v]. Culture the plates for 3 days.On Day 3, Read luminescent using Multi Label Reader. The software of GraphPad Prism was used to calculate IC50. The graphical curves were fitted using a nonlinear regression model with a sigmoidal dose response.

Ba/F3 CD74-ROS1-S1986F = assay: as above; type: cell-based; details: Mus musculus, BaF3
Method: as §2

[1] = General pharmacology: CNS and respiratory system; type: in vivo, rats
Method: (§3) […]. Therefore, WX-0593 has a low risk of cardiotoxicity. There were no effects on the CNS and respiratory system in rats at doses of 3, 10, and 30 mg/kg. However, WX-0593 10 and 30 mg/kg may result in benign respiratory rate and decreases in minute ventilation in female rats. There were no effects on the cardiovascular system, blood pressure, ECG parameters or waveforms in monkeys at doses of 5, 10, and 25 mg/kg; 10 and 25 mg/kg may result in mild decreases in heart rate (within the normal range) and PR prolongation and QTc shortening associated with bradycardia within the normal range (no statistical difference when compared to the control arm). No cardiovascular system adverse reactions related to the test product were found. The human equivalent dose (using 60 kg) is 3636 mg/person in CNS, 3636 mg/person in male respiratory system and 363.6 mg/person in female respiratory system, and 607 mg/person in cardiovascular system.

[2] = General pharmacology: cardiovascular system; type: in vivo, monkeys
Method: as §3

Ba/F3 ALK-I1171T = assay: Growth of transfected Ba/F3 cells (CellTiter-Glo, 3 days); type: cell-based; details: Mus musculus, BaF3; ALK-I1171T; read-out: IC50
Method: as §2, with “days. On” for “days.On”

Ba/F3 ALK-I1171S = assay: as above; type: cell-based; details: Mus musculus, BaF3, ALK-I1171S, read-out: IC50
Method: as §2, with “days. On” for “days.On”

Ba/F3 ALK-T1151Tins = assay: as above; type: cell-based; details: Mus musculus, BaF3; ALK-T1151Tins; read-out: IC50
Method: as §2, with “days. On” for “days.On”

Ba/F3 ALK-F1174V = assay: as above; type: cell-based; details: Mus musculus, BaF3; ALK-F1174V; read-out: IC50
Method: as §2, with “days. On” for “days.On”

Ba/F3 ALK-V1180L = assay: as above; type: cell-based; details: Mus musculus, BaF3; ALK-V1180L; read-out: IC50
Method: as §2, with “days. On” for “days.On”

Ba/F3 ALK-G1202R = assay: as above; type: cell-based; details: Mus musculus, BaF3; ALK-G1202R; read-out: IC50
Method: as §2, with “days. On” for “days.On”

Ba/F3 ALK-G1269A = assay: as above; type: cell-based; details: Mus musculus, BaF3; ALK-G1269A; read-out: IC50
Method: as §2, with “days. On” for “days.On”

Ba/F3 ALK-G1202del = assay: as above; type: cell-based; details: Mus musculus, BaF3; ALK-G1202del; read-out: IC50
Method: as §2, with “days. On” for “days.On”

Ba/F3 ALK-L1152R = assay: as above; type: cell-based; details: Mus musculus, BaF3; ALK-L1152R; read-out: IC50
Method: as §2, with “days. On” for “days.On”

Ba/F3 ALK-I1171N = assay: as above; type: cell-based; details: Mus musculus, BaF3; ALK-I1171N; read-out: IC50
Method: as §2, with “days. On” for “days.On”

Ba/F3 ALK-WT = assay: as above; type: cell-based; details: Mus musculus, BaF3; ALK-WT; read-out: IC50
Method: as §2, with “days. On” for “days.On”

Ba/F3 ALK-L1196M = assay: as above; type: cell-based; details: Mus musculus, BaF3; ALK-L1196M; read-out: IC50
Method: as §2, with “days. On” for “days.On”

Ba/F3 ALK-L1152P = assay: as above; type: cell-based; details: Mus musculus, BaF3; ALK-L1152P; read-out: IC50
Method: as §2, with “days. On” for “days.On”

Ba/F3 ALK-F1174C = assay: as above; type: cell-based; details: Mus musculus, BaF3, ALK-F1174C, read-out: IC50
Method: as §2, with “days. On” for “days.On”

Ba/F3 ALK-F1174L = assay: as above; type: cell-based; details: Mus musculus, BaF3; ALK-F1174L; read-out: IC50
Method: as §2, with “days. On” for “days.On”

Ba/F3 ALK-C1156Y = assay: as above; type: cell-based; details: Mus musculus, BaF3; ALK-C1156Y; read-out: IC50
Method: as §2, with “days. On” for “days.On”

For `COc1cc(N2CCC3(CCN(C)CC3)CC2)ccc1Nc1ncc(Cl)c(Nc2ccccc2P(C)(C)=O)n1` [WX-0593], the “inhibitory activity compared with brigatinib” value (ALK mutant L1196M) was “comparable with the activity of brigatinib; also recorded: comparable to brigatinib”, the “inhibitory activity compared with brigatinib” value (ALK mutant C1156Y) was “comparable with the activity of brigatinib; also recorded: comparable to brigatinib” and the “inhibitory activity compared with brigatinib” value (EGFR L858R/T790M) was “comparable with the activity of brigatinib; also recorded: comparable to brigatinib”. For the same compound, the IC50 (Ba/F3 CD74-ROS1-S1986Y) was 15.9 nM, the IC50 (Ba/F3 CD74-ROS1-S1986F) was 22.4 nM and the “effects on the CNS and respiratory system” value ([1]; 3, 10 and 30 mg/kg) was “no effects”. For the same compound, the “human equivalent dose, CNS” value ([1]; using 60 kg) was 3636 mg/person, the “human equivalent dose, female respiratory system” value ([1]; using 60 kg) was 363.6 mg/person and the “human equivalent dose, male respiratory system” value ([1]; using 60 kg) was 3636 mg/person. For the same compound, the “effects on cardiovascular system, blood pressure, ECG parameters or waveforms” value ([2]; 5, 10 and 25 mg/kg) was “no effects”, the “human equivalent dose, cardiovascular system” value ([2]; using 60 kg) was 607 mg/person and the IC50 (Ba/F3 ALK-I1171T) was 11.3 nM. The IC50 (Ba/F3 ALK-I1171S; first listing (r12)) was 32 nM, the IC50 (Ba/F3 ALK-I1171S; second listing (r19)) was 21.4 nM and the IC50 (Ba/F3 ALK-T1151Tins) was 12 nM. For the same compound, the IC50 (Ba/F3 ALK-F1174V) was 22.3 nM, the IC50 (Ba/F3 ALK-V1180L) was 8.4 nM and the IC50 (Ba/F3 ALK-G1202R) was 96 nM. The IC50 (Ba/F3 ALK-G1269A) was 36 nM, the IC50 (Ba/F3 ALK-G1202del) was 930 nM and the IC50 (Ba/F3 ALK-L1152R) was 4.6 nM. For the same compound, the IC50 (Ba/F3 ALK-I1171N) was 17.9 nM, the IC50 (Ba/F3 ALK-WT) was 21 nM and the IC50 (Ba/F3 ALK-L1196M) was 36 nM. For the same compound, the IC50 (Ba/F3 ALK-L1152P) was 1.5 nM, the IC50 (Ba/F3 ALK-F1174C; first listing (r10)) was 36 nM and the IC50 (Ba/F3 ALK-F1174C; second listing (r15)) was 29.3 nM. For the same compound, the IC50 (Ba/F3 ALK-F1174L) was 36 nM and the IC50 (Ba/F3 ALK-C1156Y) was 9 nM.
